The source of these data is US20100216767A1, “QUINAZOLINES FOR PDK1 INHIBITION” (priority 2006, published 2010).

As usually defined, the IC50 is the midpoint of a concentration-inhibition curve.

This assay concerns the target T1, PDK1 kinase (Homo sapiens, UniProt O15530).
T1 sequence (O15530 1-556): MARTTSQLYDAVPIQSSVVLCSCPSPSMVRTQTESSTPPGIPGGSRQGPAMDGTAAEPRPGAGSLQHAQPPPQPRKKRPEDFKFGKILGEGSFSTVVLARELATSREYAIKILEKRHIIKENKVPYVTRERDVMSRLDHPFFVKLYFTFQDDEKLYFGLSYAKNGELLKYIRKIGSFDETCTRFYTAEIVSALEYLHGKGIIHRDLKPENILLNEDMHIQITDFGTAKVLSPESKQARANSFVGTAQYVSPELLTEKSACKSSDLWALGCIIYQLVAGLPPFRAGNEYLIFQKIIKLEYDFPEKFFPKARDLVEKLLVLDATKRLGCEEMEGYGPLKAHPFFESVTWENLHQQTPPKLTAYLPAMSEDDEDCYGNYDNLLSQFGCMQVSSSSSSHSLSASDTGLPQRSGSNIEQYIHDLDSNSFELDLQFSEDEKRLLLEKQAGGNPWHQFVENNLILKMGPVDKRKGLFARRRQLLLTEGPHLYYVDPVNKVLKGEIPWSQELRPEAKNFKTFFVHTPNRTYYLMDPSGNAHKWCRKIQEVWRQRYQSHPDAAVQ
Description: PDK1 Kinase Alpha Screen Assay. It counts as biochemical. The note with it: Table 1; 10 μM ATP, 50 nM PDK1-4 peptide. The protocol:
Reagents/Concentrations: The PDK1-4 peptide substrate, biotin-[…]-NH2, (SEQ ID NO: 1), was purchased from the Tufts University Core Facility. The final concentration of PDK1-4 peptide substrate was 50 nM. The ATP substrate (adenosine-[…] triphosphate) was purchased from Roche Diagnostics. The final concentration of ATP substrate was 10 μM. Phospho-(Ser/Thr) PKA substrate antibody was purchased from Cell Signaling Technology. The final concentration of antibody was 0.3 mg/mL. The Alpha Screen Protein A detection kit containing donor and acceptor beads was purchased from PerkinElmer Life Sciences. The final concentration of both donor and acceptor beads was 25 μg/mL. Alpha Screen was used for detection. The biotinylated-PDK1-4 peptide was phosphorylated by PDK1 kinase using the ATP substrate. The biotinylated-PDK1-4 peptide substrate was bound to the streptavidin coated donor bead. The antibody was bound to the protein A coated acceptor bead. The antibody bound to the phosphorylated form of the biotinylated PDK-1 peptide substrate, bringing the donor and acceptor beads into close proximity. Laser irradiation of the donor bead at 680 nm generated a flow of short-lived singlet oxygen molecules. When the donor and acceptor beads were in close proximity, the reactive oxygen generated by the irradiation of the donor beads initiated a luminescence/fluorescence cascade in the acceptor beads. This process led to a highly amplified signal with output in the 530-620 nm range. Assays were carried out in 50 mM Tris, pH=7.5, 10 mM MgCl2, 0.1% BSA, 0.01% Tween-20, 2 mM dithiolthreitol, 2.5% dimethyl sulfoxide. Reactions were stopped by adding 50 mM Tris, pH=7.5, 90 mM EDTA, 0.1% BSA, 0.01% Tween-20.
Procedure: To 10 μl, of PDK1-4 peptide, […] of test compound in dimethyl sulfoxide was added. PDK1 kinase and ATP were mixed, and 10 μL of the PDK1 kinase/ATP mix was added to start the reaction. The reaction was allowed to proceed for 3-18 hours. The reactions were then stopped by adding 10 μL of the EDTA-containing stop buffer. Beads were mixed with antibody, and 25 μL of the bead/antibody mix was then added to the stopped reactions. Plates were incubated at room temperature overnight to allow for detection development before being read. The assay was run in a 384-well format plate.
In turn, `CC(C)NC(=O)c1ccc(Nc2ncc3cc(-c4nccs4)ccc3n2)cc1` [Example 12, N-Isopropyl-4-(6-(thiazol-2-yl)quinazolin-2-ylamino)benzamide] returned an IC50 of less than 5 µM.

Compound `C#Cc1ccc2nc(Nc3cccc(N4CCOCC4)c3)ncc2c1` [Example 51, 6-ethynyl-N-(3-morpholinophenyl)-quinazolin-2-amine] showed a 50% inhibitory concentration (IC50) of less than 5 µM.

`COc1cc2nc(Nc3cc(CN(C)C)cc(NC(C)=O)c3)ncc2cc1-c1nccs1` [Example 122, N-(3-((dimethylamino)-methyl)-5-(7-methoxy-6-(thiazol-2-yl)quinazolin-2-ylamino)phenyl)acetamide] came in with an IC50 of less than 5 µM.

As for `C#Cc1ccc2nc(Nc3ccccc3)ncc2c1` [Example 138, 6-ethynyl-N-phenyl-quinazolin-2-amine], the IC50 was less than 5 µM.

With `COc1cc(-c2nccs2)c(-c2nccs2)c2cnc(Nc3ccc(C(=O)N4CCOCC4)cc3)nc12` [Example 170, (4-(8-methoxy-5,6-di(thiazol-2-yl)quinazolin-2-ylamino)phenyl)-(morpholino)methanone], the concentration for half-maximal inhibition (IC50) lay within 5 to 10 µM.

As for `C#Cc1cc2cnc(Nc3ccc(S(N)(=O)=O)cc3)nc2cc1OC` [Example 49, 4-(6-ethynyl-7-methoxy-quinazolin-2-ylamino)-benzenesulfonamide], the IC50 was less than 5 µM.

In turn, `NS(=O)(=O)c1ccc(Nc2ncc3cc(-c4nccs4)ccc3n2)cc1` [Example 27, 4-(6-(Thiazol-2-yl)quinazolin-2-ylamino)benzenesulfonamide] displayed an IC50 of less than 5 µM.

Consider `C#Cc1ccc2nc(Nc3ccc(C(=O)NC(C)C)cc3)ncc2c1Cl` [Example 106, 4-(5-chloro-6-ethynyl-quinazolin-2-ylamino)-N-isopropylbenzamide], for which the half-inhibitory concentration (IC50) is less than 5 µM.

`C#Cc1cc2cnc(Nc3ccc(-n4cnnn4)cc3)nc2cc1OC` [Example 97, N-(4-(1H-tetrozol-1-yl)phenyl)-6-ethynyl-7-methoxyquinazolin-2-amine] gave an IC50 of less than 5 µM.

As for `COc1cc(Br)cc2cnc(Nc3ccc(S(N)(=O)=O)cc3)nc12` [Example 1, 4-(6-Bromo-8-methoxyquinazolin-2-ylamino)benzenesulfonamide], the 50% inhibitory concentration (IC50) is less than 5 µM.

Turning to `CC(C)NC(=O)c1ccc(Nc2ncc3cc(C#N)ccc3n2)cc1` [Example 13, 4-(6-Cyanoquinazolin-2-ylamino)-N-Isopropylbenzamide], the IC50 was less than 5 µM.

In turn, `C#Cc1ccc2nc(Nc3cc(CN4CCNCC4)cc(NC(C)=O)c3)ncc2c1` [Example 141, N-(3-(6-ethynylquinazolin-2-ylamino)-5-(piperazin-1-ylmethyl)phenyl)acetamide] yielded an IC50 of less than 5 µM.

In the case of `COc1ncccc1-c1ccc2nc(Nc3cc(CN(C)C)cc(NC(C)=O)c3)ncc2c1` [Example 93, N-(3-((dimethylamino)-methyl)-5-(6-(2-methoxy-pyridin-3-yl)quinazolin-2-ylamino)phenyl)acetamide], the half-inhibitory concentration (IC50) was 5 to 10 µM.

The compound `COc1cc(Br)c(Cl)c2cnc(Nc3cc(CN(C)C)cc(NC(C)=O)c3)nc12` [Example 14, N-(3-(6-Bromo-5-chloro-8-methoxyquinazolin-2-ylamino)-5-((dimethylamino)methyl)phenyl)acetamide] came in with a 50% inhibitory concentration (IC50) of less than 5 µM.

Compound `Brc1ccc2nc(Nc3cc(CN4CCOCC4)cc(-c4nnn[nH]4)c3)ncc2c1` [Example 144, 6-bromo-N-(3-(morpholinomethyl)-5-(1H-tetrazol-5-yl)phenyl)-quinazolin-2-amine] gave an IC50 of less than 5 µM.

As for `COc1cc2nc(Nc3cc(CN4CCOCC4)cc(NC(C)=O)c3)ncc2cc1-c1cn[nH]c1` [Example 175, N-(3-(7-methoxy-6-(1H-pyrazol-4-yl)quinazolin-2-ylamino)-5-(morpholino-methyl)phenyl)acetamide], the IC50 is less than 5 µM.

With `C#Cc1ccc2nc(Nc3ccc(C(=O)NC4CC4)cc3)ncc2c1Cl` [Example 107, 4-(5-chloro-6-ethynyl-quinazolin-2-ylamino)-N-cyclopropylbenzamide], the half-maximal inhibitory concentration (IC50) is less than 5 µM.

For the compound `CC(=O)Nc1cc(Nc2ncc3cc(Br)ccc3n2)cc(-c2cccnc2)c1` [Example 32, N-(3-(6-Bromoquinazolin-2-ylamino)-5-(pyridine-3-yl)phenyl)acetamide], the IC50 was less than 5 µM.

`CC(=O)Nc1cc(CN(C)C)cc(Nc2ncc3cc(Br)ccc3n2)c1` [Example 147, N-(3-(6-bromoquinazolin-2-ylamino)-5-((dimethyl-amino)methyl)phenyl)-acetamide] returned an IC50 of less than 5 µM.

On to `C#Cc1cc2cnc(Nc3cccc(-c4nnn[nH]4)c3)nc2cc1OC` [Example 98, N-(3-(1H-tetrazol-5-yl)phenyl)-6-ethynyl-7-methoxyquinazolin-2-amine], for which the IC50 was less than 5 µM.

`C#Cc1cc(OC)c2nc(Nc3ccc(C(=O)N4CCOCC4)cc3)ncc2c1Cl` [Example 113, (4-(5-chloro-6-ethynyl-8-methoxyquinazolin-2-ylamino)phenyl)-(morpholino)methanone]: the half-inhibitory concentration (IC50) was less than 5 µM.

Compound `CC(=O)Nc1cc(CN(C)C)cc(Nc2ncc3cc(-c4nccs4)ccc3n2)c1` [Example 84, N-(3-((dimethylamino)-methyl)-5-(6-(thiazol-2-yl)quinazolin-2-ylamino)-phenyl)acetamide] showed an IC50 of less than 5 µM.

`C#Cc1ccc2nc(Nc3cc(-c4cn[nH]c4)cc(N4CCOCC4)c3)ncc2c1` [Example 158, 6-ethynyl-N-(3-morpholino-5-(1H-pyrazol-4-yl)phenyl)-quinazolin-2-amine] displayed a half-maximal inhibitory concentration (IC50) of less than 5 µM.

The compound `COc1cc(Br)c(Cl)c2cnc(Nc3ccc(C(=O)N4CCOCC4)cc3)nc12` [Example 118, (4-(6-bromo-5-chloro-8-methoxyquinazolin-2-ylamino)phenyl)-(morpholino)-methanone] showed a half-maximal inhibitory concentration (IC50) of less than 5 µM.

Take `C#Cc1cc(OC)c2nc(Nc3cccc(N4CCOCC4)c3)ncc2c1` [Example 80, 6-ethynyl-8-methoxy-N-(3-morpholinophenyl)-quinazolin-2-amine]: the concentration for half-maximal inhibition (IC50) is less than 5 µM.

As for `C#Cc1ccc2nc(Nc3cc(CN4CCOCC4)cc(NC(C)=O)c3)ncc2c1` [Example 125, N-(3-(6-ethynylquinazolin-2-ylamino)-5-(morpholino-methyl)phenyl)acetamide], the IC50 was less than 5 µM.

Take `COc1cc2nc(Nc3ccc(C(=O)N4CCOCC4)c(Cl)c3)ncc2cc1-c1nccs1` [Example 104]: the IC50 is less than 5 µM.

The compound `COc1ccc2nc(Nc3ccc(C(N)=O)cc3)ncc2c1` [Example 36, 4-(6-methoxyquinazolin-2-ylamino)benzamide] yielded an IC50 of less than 5 µM.

On to `C#Cc1cc(OC)c2nc(Nc3ccc(N4CCOCC4)cc3)ncc2c1Cl` [Example 101, 5-chloro-6-ethynyl-8-methoxy-N-(4-morpholinophenyl)-quinazolin-2-amine], for which the 50% inhibitory concentration (IC50) was less than 5 µM.

`COc1cc2nc(Nc3ccc(S(N)(=O)=O)cc3)ncc2cc1Br` [Example 47, 4-(6-Bromo-7-methoxyquinazolin-2-ylamino)benzenesulfonamide] registered an IC50 of less than 5 µM.

For the compound `COc1cc(Br)c(Cl)c2cnc(Nc3ccc(C(=O)NC(C)C)cc3)nc12` [Example 89, 4-(6-bromo-5-chloro-8-methoxyquinazolin-2-ylamino)-N-isopropyl-benzamide], the half-inhibitory concentration (IC50) was less than 5 µM.

`C#Cc1ccc2nc(Nc3ccc(C(=O)NC(C)C)cc3)ncc2c1` [Example 72, 4-(6-ethynylquinazolin-2-ylamino)-N-isopropyl-benzamide] yielded a concentration for half-maximal inhibition (IC50) of less than 5 µM.

`N#Cc1ccc2nc(Nc3ccc(C(N)=O)cc3)ncc2c1` [Example 78, 4-(6-cyanoquinazolin-2-ylamino)benzamide] registered an IC50 of less than 5 µM.

In the case of `C#Cc1ccc2nc(Nc3cc(OC)cc(-n4nnnc4C)c3)ncc2c1` [Example 156, 6-ethynyl-N-(3-methoxy-5-(5-methyl-1H-tetrazol-1-yl)phenyl)quinazolin-2-amine], the half-maximal inhibitory concentration (IC50) is less than 5 µM.
